Test results from US20250333397A1 (REMIX THERAPEUTICS INC., priority 2021, published 2025).
Read-outs that look alike come from different tables or passages of the source.

How the values were obtained:
Format in all cases: cell-based, human
SMN2 mRNA = assay: RT-qPCR splicing assay panel, SMN2 canonical junction (CJ) mRNA; conditions: Homo sapiens
Method in brief: (§1)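 A673 (DMEM/10% FBS) or K562 (IMDM/10% FBS) cells treated 24 h at 37 °C with 11-point 3-fold dilutions, top 10 uM final, DMSO ≤0.25%. Lysates read by one-step RT-qPCR for CJ and AJ isoforms, normalized to GAPDH, GUSB or PPIA. ΔΔCt vs DMSO gives RQ via 2^(-ΔΔCt).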

Target C mRNA = assay: RT-qPCR splicing assay panel, Target C canonical junction (CJ) mRNA; conditions: Homo sapiens
Method in brief: as §1

MYB mRNA = assay: RT-qPCR splicing assay, MYB canonical (CJ) and alternative (AJ) junction mRNA; conditions: Homo sapiens; for AC50: read-out: MYB AJ (AC50, increase in AJ mRNA)
Method in brief: as §1

HTT mRNA = assay: RT-qPCR splicing assay, HTT canonical (CJ) and alternative (AJ) junction mRNA; conditions: Homo sapiens; for AC50: read-out: HTT AJ (AC50, increase in AJ mRNA)
Method in brief: as §1

[1] = canonical junction (CJ) mRNA, RT-qPCR panel, Table 4A, read-out: SMN2, decrease in CJ mRNA levels, IC50
[2] = canonical junction (CJ) mRNA, RT-qPCR panel, Table 4A, read-out: Target C, decrease in CJ mRNA levels, IC50
[3] = 24 h, Table 3A, A673 or K562 cells, 24 h treatment
[4] = 24 h, Table 3A, A673 or K562 cells, 24 h treatment, read-out: MYB CJ (IC50, decrease in CJ mRNA)
[5] = canonical junction (CJ) mRNA, RT-qPCR panel, Table 4A, read-out: MYB, decrease in CJ mRNA levels, IC50
[6] = 24 h, Table 3A, A673 or K562 cells, 24 h treatment, read-out: HTT CJ (IC50, decrease in CJ mRNA)
[7] = canonical junction (CJ) mRNA, RT-qPCR panel, Table 4A, read-out: HTT, decrease in CJ mRNA levels, IC50
[8] = Table 4B, gene panel, read-out: SMN2 (IC50, decrease in CJ mRNA levels)
[9] = Table 4B, gene panel, read-out: Target C (IC50, decrease in CJ mRNA levels)
[10] = 24 h, Table 3B, A673 or K562 cells, 24 h treatment
[11] = 24 h, Table 3B, A673 or K562 cells, 24 h treatment, read-out: MYB CJ (IC50, decrease in CJ mRNA)
[12] = Table 4B, gene panel, read-out: MYB (IC50, decrease in CJ mRNA levels)
[13] = 24 h, Table 3B, A673 or K562 cells, 24 h treatment, read-out: HTT CJ (IC50, decrease in CJ mRNA)
[14] = Table 4B, gene panel, read-out: HTT (IC50, decrease in CJ mRNA levels)

| Structure (SMILES) | IC50 (SMN2 mRNA; [1]) [µM] | IC50 (Target C mRNA; [2]) [µM] | IC50 (MYB mRNA; [4]) [µM] | IC50 (MYB mRNA; [5]) [µM] | IC50 (HTT mRNA; [6]) [µM] | IC50 (HTT mRNA; [7]) [µM] | IC50 (SMN2 mRNA; [8]) [µM] | IC50 (Target C mRNA; [9]) [µM] | IC50 (MYB mRNA; [11]) [µM] | IC50 (MYB mRNA; [12]) [µM] | IC50 (HTT mRNA; [13]) [µM] | IC50 (HTT mRNA; [14]) [µM] | AC50 (MYB mRNA; [3]) [µM] | AC50 (HTT mRNA; [3]) [µM] | AC50 (MYB mRNA; [10]) [µM] | AC50 (HTT mRNA; [10]) [µM] |
| --- | --- | --- | --- | --- | --- | --- | --- | --- | --- | --- | --- | --- | --- | --- | --- | --- |
| COc1cc(-c2ccc(-c3nnc(N4CC[C@H](NC5CCC5)C4)cc3C)c(O)c2)cnn1 [Compound 450, (S)-2-(6-(3-(cyclobutylamino)pyrrolidin-1-yl)-4-methylpyridazin-3-yl)-5-(6-methoxypyridazin-4-yl)phenol] | 1 to 10 | 1 to 10 | 1 to 10 | 1 to 10 | 1 to 10 | 1 to 10 | – | – | – | – | – | – | 1 to 10 | 1 to 10 | – | – |
| COc1cc(-c2ccc(-c3cc(C#N)c(N4CC[C@H](NC5CCC5)C4)nn3)c(O)c2)cnn1 [Compound 343, 3-[(3S)-3-(cyclobutylamino)pyrrolidin-1-yl]-6-[2-hydroxy-4-(6-methoxypyridazin-4-yl)phenyl]pyridazine-4-carbonitrile] | 0.1 to 1 | 1 to 10 | > 10 | > 10 | 0.1 to 1 | 0.1 to 1 | – | – | – | – | – | – | > 10 | 1 to 10 | – | – |
| COc1cc(-c2cc(O)c(-c3ccc(N4CC[C@H](NC5CCC5)C4)nn3)cc2F)cnn1 [Compound 231, 2-{6-[(3S)-3-(cyclobutylamino)pyrrolidin-1-yl]pyridazin-3-yl}-4-fluoro-5-(6-methoxypyridazin-4-yl)phenol] | < 0.1 | 0.1 to 1 | 0.1 to 1 | 0.1 to 1 | < 0.1 | < 0.1 | – | – | – | – | – | – | 0.1 to 1 | < 0.1 | – | – |
| CC(C)(C)NC1CCN(c2ccc(-c3cc4oc(CC#N)nc4cc3O)nn2)C1 (stereo not drawn) [Compound 820] | – | – | – | – | – | – | < 0.1 | 1 to 10 | 1 to 10 | 1 to 10 | 0.1 to 1 | 0.1 to 1 | – | – | 0.1 to 1 | 0.1 to 1 |
| COc1cncc(-c2cc(O)c(-c3ccc(N4CC[C@@H](NC5CCC5)C4)nn3)cc2F)c1 [Compound 225, 2-{6-[(3R)-3-(cyclobutylamino)pyrrolidin-1-yl]pyridazin-3-yl}-4-fluoro-5-(5-methoxypyridin-3-yl)phenol] | > 10 | > 10 | > 10 | > 10 | > 10 | > 10 | – | – | – | – | – | – | > 10 | > 10 | – | – |
| Cn1cc2cc(-c3ccc(-c4ccc(N5CCC(NC6CCC6)C5)nn4)c(O)c3)cc(F)c2n1 (stereo not drawn) [Compound 328] | < 0.1 | 0.1 to 1 | 0.1 to 1 | 0.1 to 1 | < 0.1 | < 0.1 | – | – | – | – | – | – | 0.1 to 1 | < 0.1 | – | – |
| Cc1nc2ccc(-c3ccc(N4CCC(NC(C)(C)C)C4)nn3)nc2o1 (stereo not drawn) [Compound 832] | – | – | – | – | – | – | < 0.1 | 0.1 to 1 | 0.1 to 1 | 0.1 to 1 | < 0.1 | < 0.1 | – | – | 0.1 to 1 | 0.1 to 1 |
| Cc1nc2cc(O)c(-c3cnc(N4C[C@@H](C)N[C@@H](C5CC5)C4)nn3)cc2o1 [Compound 870] | – | – | – | – | – | – | 1 to 10 | 1 to 10 | 1 to 10 | 1 to 10 | 1 to 10 | 1 to 10 | – | – | 1 to 10 | 1 to 10 |
| CN(C1CCC1)[C@@H]1CCN(c2ccc(-c3cc(F)c(-c4cn[nH]c4)cc3O)nn2)C1 [Compound 314, 2-{6-[(3R)-3-[cyclobutyl(methyl)amino]pyrrolidin-1-yl]pyridazin-3-yl}-4-fluoro-5-(1H-pyrazol-4-yl)phenol] | < 0.1 | 0.1 to 1 | 1 to 10 | 1 to 10 | < 0.1 | < 0.1 | – | – | – | – | – | – | 0.1 to 1 | 0.1 to 1 | – | – |
| O=c1cc(-c2cc(O)c(-c3ccc(N4CC[C@H](NC5CCC5)C4)nn3)cc2F)cc[nH]1 [Compound 221] | < 0.1 | 1 to 10 | 0.1 to 1 | 0.1 to 1 | 0.1 to 1 | 0.1 to 1 | – | – | – | – | – | – | 1 to 10 | 0.1 to 1 | – | – |
| Cc1cnc(-c2cc(O)c(-c3ccc(N4CCC(NC5CCC5)C4)nn3)cc2F)s1 (stereo not drawn) [Compound 367] | 1 to 10 | > 10 | > 10 | > 10 | > 10 | > 10 | – | – | – | – | – | – | > 10 | > 10 | – | – |
| Cc1nsc(-c2cc(O)c(-c3ccc(N4CC[C@H](NCC5CC5)C4)nn3)cc2F)n1 [Compound 432] | < 0.1 | 0.1 to 1 | 1 to 10 | 1 to 10 | < 0.1 | < 0.1 | – | – | – | – | – | – | 0.1 to 1 | 0.1 to 1 | – | – |
| CN(c1ccc(-c2ccc(-c3cn[nH]c3)cc2O)nn1)C1CC(C)(C)NC(C)(C)C1 [Compound 360] | < 0.1 | < 0.1 | < 0.1 | < 0.1 | < 0.1 | < 0.1 | – | – | – | – | – | – | < 0.1 | < 0.1 | – | – |
| Cc1cc(-c2ccc(-c3ccc(N4CCC(NC5CCC5)C4)nn3)c(O)c2)cc2cn(C)nc12 (stereo not drawn) [Compound 318] | 0.1 to 1 | 0.1 to 1 | 1 to 10 | 1 to 10 | 0.1 to 1 | 0.1 to 1 | – | – | – | – | – | – | > 10 | 0.1 to 1 | – | – |
| Cc1ncc(-c2cc(O)c(-c3ccc(N4CC[C@@H](N[C@H](C)C5CC5)C4)nn3)cc2F)s1 [Compound 418] | < 0.1 | < 0.1 | < 0.1 | < 0.1 | < 0.1 | < 0.1 | – | – | – | – | – | – | < 0.1 | < 0.1 | – | – |

More lines, main results first:

| IC50 (SMN2 mRNA; [1]) [µM] | IC50 (Target C mRNA; [2]) [µM] | IC50 (MYB mRNA; [4]) [µM] | IC50 (MYB mRNA; [5]) [µM] | IC50 (HTT mRNA; [6]) [µM] | IC50 (HTT mRNA; [7]) [µM] | IC50 (SMN2 mRNA; [8]) [µM] | IC50 (Target C mRNA; [9]) [µM] | IC50 (MYB mRNA; [11]) [µM] | IC50 (MYB mRNA; [12]) [µM] | IC50 (HTT mRNA; [13]) [µM] | IC50 (HTT mRNA; [14]) [µM] | Structure (SMILES) | AC50 (MYB mRNA; [3]) [µM] | AC50 (HTT mRNA; [3]) [µM] | AC50 (MYB mRNA; [10]) [µM] | AC50 (HTT mRNA; [10]) [µM] |
| --- | --- | --- | --- | --- | --- | --- | --- | --- | --- | --- | --- | --- | --- | --- | --- | --- |
| 1 to 10 | 1 to 10 | 1 to 10 | 1 to 10 | 1 to 10 | 1 to 10 | – | – | – | – | – | – | Cc1ccc(-c2ccc(-c3ccc(N4CCC(NC5CCC5)C4)nn3)c(O)c2)o1 (stereo not drawn) [Compound 325, 2-{6-[3-(cyclobutylamino)pyrrolidin-1-yl]pyridazin-3-yl}-5-(5-methylfuran-2-yl)phenol] | 1 to 10 | 1 to 10 | – | – |
| < 0.1 | 0.1 to 1 | 0.1 to 1 | 0.1 to 1 | < 0.1 | < 0.1 | – | – | – | – | – | – | CCN(C1CCC1)[C@H]1CCN(c2ccc(-c3ccc(-c4cnnc(OC)c4)cc3O)nn2)C1 [Compound 276] | 0.1 to 1 | 0.1 to 1 | – | – |
| < 0.1 | < 0.1 | 0.1 to 1 | 0.1 to 1 | < 0.1 | < 0.1 | – | – | – | – | – | – | COc1cc(-c2ccc(-c3ccc(N4CC[C@@H](NC5(C)CCC5)C4)nn3)c(O)c2)ncn1 [Compound 383, 5-(6-methoxypyrimidin-4-yl)-2-{6-[(3R)-3-[(1-methylcyclobutyl)amino]pyrrolidin-1-yl]pyridazin-3-yl}phenol] | 0.1 to 1 | < 0.1 | – | – |
| < 0.1 | 0.1 to 1 | 0.1 to 1 | 0.1 to 1 | < 0.1 | < 0.1 | – | – | – | – | – | – | Oc1cc(-c2cn[nH]c2)ccc1-c1ccc(N2CCC(NCC3CC3)C2)nn1 (stereo not drawn) [Compound 108, 2-(6-{3-[(cyclopropylmethyl)amino]pyrrolidin-1-yl}pyridazin-3-yl)-5-(1H-pyrazol-4-yl)phenol; methane] | 0.1 to 1 | < 0.1 | – | – |
| < 0.1 | 0.1 to 1 | 0.1 to 1 | 0.1 to 1 | < 0.1 | < 0.1 | – | – | – | – | – | – | Oc1cc(-c2cn[nH]c2)ccc1-c1ccc(N2CCC(NC3(CF)CC3)C2)nn1 (stereo not drawn) [Compound 112, 2-[6-(3-{[1-(fluoromethyl)cyclopropyl]amino}pyrrolidin-1-yl)pyridazin-3-yl]-5-(1H-pyrazol-4-yl)phenol] | < 0.1 | < 0.1 | – | – |
| < 0.1 | 0.1 to 1 | 0.1 to 1 | 0.1 to 1 | 0.1 to 1 | 0.1 to 1 | – | – | – | – | – | – | CCN(C1CCC1)[C@@H]1CCN(c2ccc(-c3ccc(-c4cnnc(OC)c4)cc3O)nn2)C1 [Compound 290, 2-{6-[(3R)-3-[cyclobutyl(ethyl)amino]pyrrolidin-1-yl]pyridazin-3-yl}-5-(6-methoxypyridazin-4-yl)phenol] | 0.1 to 1 | 0.1 to 1 | – | – |
